Data on 16 compounds can be found in ChEMBL document CHEMBL3421545, “Discovery of novel non-covalent inhibitors selective to the β5-subunit of the human 20S proteasome” (Eur J Med Chem, 2015).

In assay [1] the target is Proteasome subunit beta type-7, β2, trypsin-like (Homo sapiens) (UniProt Q99436). The experiment in a line: Inhibition of trypsin-like activity of human beta-2 subunit of 20S proteasome using Bz-VGR-AMC as substrate at 10 ug/ml by fluorometer analysis.
Assay [2] deals with T1, Proteasome Macropain subunit MB1 (Homo sapiens, UniProt P28074).
T1 sequence (P28074 whole entry): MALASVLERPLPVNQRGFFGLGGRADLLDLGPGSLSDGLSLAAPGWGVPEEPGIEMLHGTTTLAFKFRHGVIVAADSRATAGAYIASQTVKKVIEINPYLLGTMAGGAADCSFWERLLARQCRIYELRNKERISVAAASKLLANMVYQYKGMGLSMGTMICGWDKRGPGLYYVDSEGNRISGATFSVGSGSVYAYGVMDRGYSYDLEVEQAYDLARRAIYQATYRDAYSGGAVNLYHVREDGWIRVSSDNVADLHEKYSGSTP
The experiment in a line: Inhibition of chymotrypsin-like activity of human beta-5 subunit of 20S proteasome using Suc-LLVY-AMC as substrate by fluorometer analysis.

Assay [3] deals with Proteasome subunit beta type-6, β1, caspase-like (Homo sapiens) (UniProt P28072). Description: Inhibition of caspase-like activity of human beta-1 subunit of 20S proteasome using (Z)-LLE-bNA as substrate at 10 ug/ml by fluorometer analysis.
Chain of Proteasome subunit beta type-6, β1, caspase-like (Homo sapiens) (P28072 whole entry, looked up): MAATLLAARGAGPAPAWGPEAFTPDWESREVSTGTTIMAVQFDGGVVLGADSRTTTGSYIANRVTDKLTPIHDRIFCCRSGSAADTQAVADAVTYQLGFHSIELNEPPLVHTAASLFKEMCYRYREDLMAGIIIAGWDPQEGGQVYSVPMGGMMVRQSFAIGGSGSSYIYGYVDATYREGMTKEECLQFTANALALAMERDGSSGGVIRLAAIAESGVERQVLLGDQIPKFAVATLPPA
The nature of assay [4]: Inhibition of chymotrypsin-like activity of 20S proteasome isolated from human THP1 cells using Suc-Leu-Leu-Val-Tyr-MCA as substrate by fluorometer analysis. Type of assay: cell-free. Particulars: thp-1; call rule not given here.

Molecules are shown by their SMILES.

Chain of Proteasome subunit beta type-7, β2, trypsin-like (Homo sapiens) (Q99436 whole entry, looked up): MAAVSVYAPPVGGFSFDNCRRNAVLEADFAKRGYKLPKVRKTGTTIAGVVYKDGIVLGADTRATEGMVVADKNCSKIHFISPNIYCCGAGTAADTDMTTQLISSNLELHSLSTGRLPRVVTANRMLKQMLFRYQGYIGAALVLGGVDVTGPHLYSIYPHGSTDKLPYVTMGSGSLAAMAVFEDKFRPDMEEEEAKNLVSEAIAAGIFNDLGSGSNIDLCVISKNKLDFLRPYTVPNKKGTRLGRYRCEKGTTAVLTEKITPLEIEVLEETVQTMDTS

For the compound `COC(=O)[C@@H](NC(=O)[C@@H](NC(=O)[C@H](CC(N)=O)NC(=O)Cc1cccc(Oc2ccccc2)c1)C(C)C)[C@H](C)O`, the inhibition in assay [1] and in assay [3] was < 50% each time. In addition, the IC50 (usually the point on the concentration scale where inhibition reaches its midpoint) in assay [2] (read-out: IC50) was found to be 0.29 µM. As for `CCCNC(=O)[C@@H](NC(=O)[C@H](CC(N)=O)NC(=O)Cc1cccc(Oc2ccccc2)c1)C(C)C`, the IC50 in assay [2] (read-out: IC50) worked out at 13 µM.

Consider `COc1ccc(CNC(=O)[C@@H](NC(=O)[C@H](CCC(N)=O)NC(=O)Cc2cccc(Oc3ccccc3)c2)C(C)C)c(O)c1`, for which, in assay [2] (read-out: IC50), the IC50 came out at 1.63 µM.

On to `COc1ccc(CNC(=O)[C@@H](NC(=O)[C@H](CCCCNC(=O)OCc2ccccc2)NC(=O)Cc2cccc(Oc3ccccc3)c2)C(C)C)c(O)c1`, for which the IC50 in assay [2] (read-out: IC50) was found to be 11.7 µM.

Regarding `CC(C)[C@H](NC(=O)[C@H](CC(N)=O)NC(=O)Cc1cccc(Oc2ccccc2)c1)C(=O)N[C@H](C(=O)O)[C@H](C)O`, the IC50 in assay [2] (read-out: IC50) is 13.9 µM. As to `CC(C)[C@H](NC(=O)[C@H](CC(N)=O)NC(=O)Cc1cccc(Oc2ccccc2)c1)C(=O)NCCc1ccccc1`, the IC50 result in assay [2] was “Not Active”. Still for that read-out and setting: the value for `COc1ccc(CNC(=O)[C@@H](NC(=O)[C@H](CCCCN)NC(=O)Cc2cccc(Oc3ccccc3)c2)C(C)C)c(O)c1` was “Not Active”. `COc1ccc(CNC(=O)[C@@H](NC(=O)[C@H](CC(N)=O)NC(=O)Cc2cccc(Oc3ccccc3)c2)C(C)C)c(O)c1`: the inhibition in assay [1] and in assay [3] was < 50% each time. Further, the IC50 in assay [2] (read-out: IC50) worked out at 0.66 µM. As for `CC(C)[C@H](NC(=O)[C@H](CC(N)=O)NC(=O)Cc1cccc(Oc2ccccc2)c1)C(=O)N[C@H](C(=O)OCc1ccccc1)[C@H](C)O`, the inhibition in assay [1] and in assay [3] was < 50% throughout. Also, the IC50 in assay [2] (read-out: IC50) worked out at 0.92 µM. In the case of `CC(C)[C@H](NC(=O)[C@H](CC(N)=O)NC(=O)Cc1cccc(Oc2ccccc2)c1)C(=O)NCCO`, the IC50 in assay [2] (read-out: IC50) was found to be 17.2 µM. `CC(C)[C@H](NC(=O)[C@H](CC(N)=O)NC(=O)Cc1cccc(Oc2ccccc2)c1)C(=O)N[C@@H](C)c1ccccc1`: the IC50 result in assay [2] was “Not Active”. Regarding `CC(C)[C@H](NC(=O)[C@H](CC(N)=O)NC(=O)Cc1cccc(Oc2ccccc2)c1)C(=O)O`, the IC50 entry in assay [2] is given as “Not Active”. On to `CC(C)[C@H](NC(=O)[C@H](CC(N)=O)NC(=O)Cc1cccc(Oc2ccccc2)c1)C(=O)OCc1ccccc1`, for which the IC50 in assay [2] (read-out: IC50) stood at 17.3 µM. As to `COc1ccc(CNC(=O)[C@@H](NC(=O)[C@H](CC(N)=O)NC(=O)Cc2cccc(Oc3ccccc3)c2)C(C)C)c(OC)c1`, in assay [2], the IC50 entry is reported as “Not Active”. In the case of `C/C=C\NC(=O)[C@H]1NC(=O)[C@@H](CC(N)=O)NC(=O)[C@@H](NC(=O)C(=O)[C@@H](C)CC)Cc2ccc(O)c(c2)-c2cccc3c2NC(=O)[C@@]3(O)[C@@H]1O`, the half-maximal inhibitory concentration (IC50) in assay [4] is 0.0054 µM.

As for `CC(C)[C@H](NC(=O)[C@H](CC(N)=O)NC(=O)Cc1cccc(Oc2ccccc2)c1)C(=O)N[C@H](C)c1ccccc1`, the IC50 result in assay [2] is reported as “Not Active”.
